Laboratory results from patent US5039808A, “Therapeutically active cyclopropyl substituted compound” (priority 1988, dated 1991).

How the values were obtained:
gastric acid secretion [1] = assay: Inhibition of Gastric Acid Secretion in the Conscious Dog (histamine stimulated); type: in vivo, Harrier dogs of either sex
Procedure: (§1) The potency for inhibition of acid secretion has been measured in the male rat and the dog, both intravenously and intraduodenally. When it comes to relevance of the animal test data for potency of a given compound in man for the present type of compounds, it is believed that potency in man will correspond to a level somewhere between what is measured in the male rat and what is measured in the dog.
(§2) Harrier dogs of either sex were used. They were equipped with a duodenal fistula for the administration of test compounds or vehicle and a cannulated ventricular fistula for the collection of gastric secretions.
Before secretory tests the animals were fasted for about 18 h but water was freely allowed. Gastric acid secretion was stimulated by a 4 h infusion of histamine dihydrochloride (12 ml/h) at a dose producing about 80% of the individual maximal secretory response, and gastric juice collected in consecutive 30-min fractions. Test substance or vehicle was given id or iv 1 h after starting the histamine infusion, in a volume of 0.5 ml/kg body weight. The acidity of the gastric juice samples were determined by titration to pH 7.0, and the acid output calculated. The acid output in the collection periods after administration of test substance or vehicle were expressed as fractional responses, setting the acid output in the fraction preceding administration to 1.0. Percentage inhibition was calculated from fractional responses elicited by test compound and vehicle. ED50 -values were obtained by graphical interpolation on log dose - response curves, or estimated from single-dose experiments under the assumption of the same slope of the dose-response curve for all test compounds. All results reported are based on acid output 2 h after dosing.

[2] = Bioavailability in the dog, AUC method; type: in vivo, Harrier dogs of either sex; settings: id vs iv, plasma up to 3 h, extrapolated to infinite time, read-out: Bioavailability measured by the AUC-method F%, Dog
Procedure: Bioavailability is assessed by calculating the quotient between the area under plasma concentration (AUC) curve following introduodenal (id) administration and intravenous (iv) administration from the rat or the dog. Low, therapeutically relevant doses, were used. This method is scientifically recognized as valid for assessing bioavailability (see for instance: M. Rowland and T. N. Tozer, Clinical Pharmacokinetics, 2nd ed., Lea & Febiger, London 1989, p 42).
as §2
Blood samples for the analysis of test compound concentration in plasma were taken at intervals up to 3 h after dosing. Plasma was separated and frozen within 30 min after collection. AUC (area under the plasma concentration - time curve), extrapolated to infinite time, was calculated by the linear trapezoidal rule. The systemic bioavailability (F%) after id administration was calculated as 100 × (AUCid /AUCiv).

[3] = Bioavailability in the Male Rat, AUC method; type: in vivo, Male adult rats of the Sprague-Dawley strain; settings: blood, 4 umol/kg, 4 μmol/kg id and iv, up to 4 h, extrapolated to infinity, read-out: Bioavailability measured by the AUC-method F%, Rat
From the text: The results from tests on two different animal species, rat and dog, vary in regard to measured level of bioavailability for the same compound. We believe that the rat is the more relevant species for bioavailability testing. This is based on our belief that liver metabolism has the most predominant impact upon bioavailability, and that the liver metabolic pattern in man for this type of compounds is quite similar to that of the male rat (more so than of the female rat and the dog). Moreover, test results of bioavailability in the male rat will tend to give a broader "spread" compared with the test results in the dog, and thus the male rat model will give more clear differences in bioavailability between different compounds. […]
Bioavailability is assessed by calculating the quotient between the area under plasma concentration (AUC) curve following introduodenal (id) administration and intravenous (iv) administration from the rat or the dog. […]
The area under the blood concentration vs time curve, AUC, was determined by the linear trapezoidal rule and extrapolated to infinity by dividing the last determined blood concentration by the elimination rate constant in the terminal phase. The systemic bioavailability (F%) following intraduodenal administration was calculated as [formula]

gastric acid secretion [4] = assay: Inhibition of Gastric Acid Secretion in the Conscious Male Rat (pentagastrin and carbachol stimulated); type: in vivo, Male rats of the Sprague-Dawley strain; settings: second hour after administration
Procedure: as §1
Male rats of the Sprague-Dawley strain were used. They were equipped with cannulated fistulae in the stomach (lumen) and the upper part of the duodenum, for collection of gastric secretions and administration of test substances, respectively. A fourteen days recovery period after surgery was allowed before testing commenced.
Before secretory tests, the animals were deprived of food but not water for 20 h. The stomach was repeatedly washed through the gastric cannula, and 6 ml of Ringer-Glucose given s.c. Acid secretion was stimulated with a infusion during 3.5 h (1.2ml/h, s.c.) of pentagastrin and carbachol (20 and 110 nmol/kg h, respectively), during which time gastric secretions were collected in 30-min fractions. Test substances or vehicle were given iv or id at 90 min after starting the stimulation, in a volume of 1 ml/kg. Gastric juice samples were titrated to pH 7.0 with NaOH, 0.1 mol/L, and acid output calculated as the product of titrant volume and concentration. Further calculations were based on group mean responses from 4-5 rats. The acid output during the periods after administration of test substances or vehicle were expressed as fractional responses, setting the acid output in the 30-min period preceding administration to 1.0. Percentage inhibition was calculated from the fractional responses elicited by test compound and vehicle. ED50 -values were obtained from graphical interpolation on log dose-response curves, or estimated from single-dose experiments assuming a similar slope for all dose-response curves. An estimation of the bioavailability was obtained by calculating the ratio ED50 iv/ED50 id. The results reported are based on gastric acid secretion during the second hour after drug/vehicle administration.

[5] = Chemical stability in aqueous buffer solution; type: physicochemical; settings: low concentration
Procedure: The chemical stability of various compounds of the invention has been followed kinetically at low concentration at 37°C. in aqueous buffer solution at different pH values. The results in Table 3 show the half life (t 1/2) at pH 7, that is the time period after which half the amount of the original compound remains unchanged.

[6] = Rough Screening Model for bioavailability: ratio ED50 iv/ED50 id of acid secretion inhibition in the rat; design: species or system Male rats of the Sprague-Dawley strain; settings: in vivo, ratio of ED50 values, read-out: "Bioavailability" measured by the Rough Screening Model, Rat ED50 iv/ED50 id
Procedure: Since the bioavailability model described above is time and labour intensive, and requires a large number of plasma analyses, also a rough screening model, based on relative potencies to inhibit acid secretion, has been used (see for instance: A. Goth, Medical Pharmacology, 7the ed., C. V. Mosby Company, Saint Louis 1974, p 19). Thus, the ratio (called "Bioavailability" in Table 3) between the ED50 at intravenous administration and the ED50 at intraduodenal administration was calculated.
Before secretory tests, the animals were deprived of food but not water for 20 h. The stomach was repeatedly washed through the gastric cannula, and 6 ml of Ringer-Glucose given s.c. Acid secretion was stimulated with a infusion during 3.5 h (1.2ml/h, s.c.) of pentagastrin and carbachol (20 and 110 nmol/kg h, respectively), during which time gastric secretions were collected in 30-min fractions. […] Gastric juice samples were titrated to pH 7.0 with NaOH, 0.1 mol/L, and acid output calculated as the product of titrant volume and concentration. […] The acid output during the periods after administration of test substances or vehicle were expressed as fractional responses, setting the acid output in the 30-min period preceding administration to 1.0. Percentage inhibition was calculated from the fractional responses elicited by test compound and vehicle. […]

| bioavailability [2] [%] | bioavailability [3] [%] | Chemical stability at pH 7, half-life (t 1/2) ([5]; 37°C) [h] | half-life ([5]; pH 7, 37°C, read-out: Chemical stability at pH 7, half-life (t 1/2) (converted)) [h] | bioavailability [6] [%] | SMILES | ED50 (gastric acid secretion [1]; Canis lupus familiaris, dog, route id, acid output 2 h after dosing) [µmol/kg] | inhibition of acid secretion (gastric acid secretion [1]; Dog 1, 1 μmol/kg, iv) [%] | inhibition of acid secretion (in words) (gastric acid secretion [1]; Dog 2, 1 μmol/kg, iv) | inhibition of acid secretion (gastric acid secretion [1]; Dog 3, 2 μmol/kg, iv) [%] | ED50 (gastric acid secretion [4]; route id, read-out: Inhibition of acid secretion, Rat ED50, id) [µmol/kg] | ED50 (gastric acid secretion [4]; route iv, read-out: Inhibition of acid secretion, Rat ED50, iv) [µmol/kg] | inhibition of acid secretion (gastric acid secretion [1]; Dog 4, 3 μmol/kg, id (footnote to id column)) [%] | inhibition of acid secretion (gastric acid secretion [1]; Dog 5, 3 μmol/kg, id (footnote to id column)) [%] | Inhibition of acid secretion, Rat ED50, id (gastric acid secretion [4]; route id) [µmol/kg] | Inhibition of acid secretion, Rat ED50, iv (gastric acid secretion [4]; route iv) [µmol/kg] |
| --- | --- | --- | --- | --- | --- | --- | --- | --- | --- | --- | --- | --- | --- | --- | --- |
| 80 | 82 | 23 | 23 | 55 | [O-][S+](Cc1cc(OCC2CC2)ccn1)c1nc2cc(F)ccc2[nH]1 (stereo not drawn) [Example 1, 5-fluoro-2-[[(4-cyclopropyl-methoxy-2-pyridinyl)methyl]sulfinyl]-1H-benzimidazole] | 1 | 35 | no effect | 98 | 2.2 | 1.2 | – | – | – | – |
| – | – | – | – | – | CC(C)Oc1ccnc(C[S+]([O-])c2nc3cc(F)ccc3[nH]2)c1 (stereo not drawn) [Ref., 5-fluoro-2-[[(4-isopropoxy-2-pyridinyl)-methyl]sulfinyl]-1H-benzimidazole, reference compound] | – | – | – | – | – | – | 95 | 98 | 4.0 | 1.8 |
